We go through 28 compounds from PubChem BioAssay (NCI).

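Growth conditions: 96-well plates. Treatment: test compound, 48 hours, 5 concentrations. Analysis: linear interpolation between bracketing concentrations; unreached endpoints set to highest concentration. Here, GI50 denotes the concentration required for 50% inhibition of growth. TGI: total growth inhibition.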 Where only a bound is given, the exact number is not on record here.

Some test systems named below: DLD-1 colon; DMS 114 small cell lung; LXFL 529 NSCLC; M19-MEL melanoma; OVCAR-4 ovarian; SF-539 CNS; SNB-75 CNS; SNB-78 CNS; DMS 273 small cell lung; KM20L2 colon.
Experiment in all cases: NCI anticancer screen, dose series, 48 h

For the compound `O=C(NC(=O)c1cn(CCN2CCNCC2)c(=O)[nH]c1=O)OCc1ccccc1`, the TGI with DLD-1 colon, in the experiment on DMS 114 small cell lung, in the experiment with LXFL 529 NSCLC, in the experiment on M19-MEL melanoma, in the experiment on OVCAR-4 ovarian and in the experiment on SF-539 CNS was > 100 µM in each case. The TGI in the experiment on SNB-75 CNS and in the experiment on SNB-78 CNS was > 100 µM in each case.

As to `Nn1c(CNc2ccc(-c3nnc(Nc4ccc(Cl)cc4)n3N)cc2)nnc1Nc1ccc(Cl)cc1`, the TGI in the experiment with OVCAR-4 ovarian and with SNB-75 CNS was > 100 µM each time.

For the compound `COC(=O)N1CC[C@@H]2CCC=C(c3cccc4c3OCO4)[C@@H]21`, the TGI in the experiment on OVCAR-4 ovarian was > 100 µM; in the experiment with SF-539 CNS it was > 100 µM; in the experiment with SNB-75 CNS, 62 µM.

Turning to `CN(C)C(=S)Nc1nnc(NC23CC4CC(CC(C4)C2)C3)s1`, the TGI with DMS 114 small cell lung is 63.1 µM; with DMS 273 small cell lung, 55.3 µM; in the experiment with KM20L2 colon, 24.8 µM; with M19-MEL melanoma, 43.6 µM; with OVCAR-4 ovarian it was 32.4 µM; in the experiment with SNB-78 CNS, > 100 µM.

Turning to `CC1=NN(c2nc(N)nc(CS(C)(=O)=O)n2)C(C)(C)C1`, the TGI in the experiment on OVCAR-4 ovarian, in the experiment with SF-539 CNS and in the experiment on SNB-75 CNS was > 100 µM each time.

`Nc1[nH]c(=O)nc2sc3c(c12)CCCC3`: the TGI was > 100 µM with OVCAR-4 ovarian, > 100 µM in the experiment on SF-539 CNS and 64.4 µM in the experiment with SNB-75 CNS.

Turning to `COc1ccc(-c2cc(-c3ccccc3)n(C3OC(COC(C)=O)C(OC(C)=O)C(OC(C)=O)C3OC(C)=O)c(=S)c2C#N)cc1` (centres undefined), the TGI stood at 8.06 µM in the experiment with OVCAR-4 ovarian, 14.4 µM with SF-539 CNS and 19.2 µM in the experiment with SNB-75 CNS.

As for `COc1cc(/C=C2\C(=O)N(c3cccc(Cl)c3)C(c3ccccc3)S2(=O)=O)cc(OC)c1OC` (centres undefined), the TGI in the experiment on OVCAR-4 ovarian and with SF-539 CNS was > 100 µM each time.

`O=C1/C(=C/c2ccc(O)cc2)NC(=S)N1CN1CCCCC1`: the TGI in the experiment with OVCAR-4 ovarian and in the experiment with SNB-75 CNS was > 100 µM throughout.

Take `CC(C)(C)OC(=O)N1C(C2=COc3ccccc3O2)=COc2ccccc21`: the TGI with OVCAR-4 ovarian is > 100 µM; with SF-539 CNS, 41.2 µM; with SNB-75 CNS it was > 100 µM.

As for `COc1ccc(C2CCc3nc4nc(N)nc(N)c4cc3C2)cc1` (centres undefined), the TGI in the experiment with OVCAR-4 ovarian was determined as 67.4 µM; in the experiment on SF-539 CNS, 30.9 µM; in the experiment on SNB-75 CNS, 5.09 µM.

As for `COc1cc(Cn2c3c(c4c(CN(C)C)c(O)ccc42)C(=O)c2ccccc2C3=O)cc(OC)c1`, the TGI in the experiment with OVCAR-4 ovarian was determined as 26.9 µM; with SF-539 CNS, 29.8 µM; in the experiment with SNB-75 CNS, 8.07 µM.

For `CN(C)c1cccc(-c2cc(=O)c3ccccc3[nH]2)c1`, the TGI with DLD-1 colon, in the experiment on DMS 114 small cell lung, in the experiment with DMS 273 small cell lung, in the experiment on KM20L2 colon, in the experiment on LXFL 529 NSCLC and in the experiment with M19-MEL melanoma was > 100 µM throughout. In addition, the TGI in the experiment on SF-539 CNS and in the experiment on SNB-78 CNS was > 100 µM in each case. Further, the figures for the GI50 in the experiment with DMS 114 small cell lung and in the experiment with KM20L2 colon were 46 µM and 34.5 µM, respectively.

Turning to `O=C(N=Nc1ccc([N+](=O)[O-])cc1)NNc1ccc([N+](=O)[O-])cc1`, the TGI came to 44.8 µM in the experiment on OVCAR-4 ovarian and 79.9 µM with SNB-75 CNS.

Take `c1ccc(Cc2cccc3cc(-c4ccc(-c5ccccc5)cc4)[nH]c23)cc1`: the TGI in the experiment on OVCAR-4 ovarian, in the experiment with SF-539 CNS and with SNB-75 CNS was > 100 µM each time.

For the compound `Clc1cc2nc(C3CCCO3)[nH]c2cc1Cl` (centres undefined), the TGI with OVCAR-4 ovarian, with SF-539 CNS and with SNB-75 CNS was > 100 µM throughout.

As for `Cc1cccc2c1Oc1cc(Cl)ccc1C2NC(=O)CCN1CCCCC1` (centres undefined), the TGI with OVCAR-4 ovarian came to 30.9 µM; in the experiment with SF-539 CNS it was 31.9 µM; in the experiment with SNB-75 CNS, 28.1 µM.

As for `ON=C1CCCCC(=NO)CCCC1`, the TGI in the experiment on OVCAR-4 ovarian, in the experiment with SF-539 CNS and with SNB-75 CNS was > 100 µM each time.

Consider `CCCS(=O)(=O)O`, for which the TGI in the experiment on OVCAR-4 ovarian, in the experiment with SF-539 CNS and in the experiment with SNB-75 CNS was > 100 µM throughout.

As for `COc1cc(N=C(N)N=C(N)N)c2ncccc2c1`, the TGI with OVCAR-4 ovarian, with SF-539 CNS and with SNB-75 CNS was > 100 µM throughout.

On to `O=C(Nc1ccc(Cl)cc1)c1cc(S(=O)(=O)Nc2n[nH]c(=O)[nH]2)c(SSc2cc(Cl)c(C(=O)Nc3ccc(Cl)cc3)cc2S(=O)(=O)Nc2n[nH]c(=O)[nH]2)cc1Cl`, for which the TGI with OVCAR-4 ovarian and in the experiment with SNB-75 CNS was > 100 µM in each case.

Turning to `CCOC(=O)C(Cc1ccc2c(c1)CCC2)(Cc1ccc2c(c1)CCC2)C(=O)OCC`, the TGI in the experiment with OVCAR-4 ovarian, with SF-539 CNS and with SNB-75 CNS was > 100 µM throughout.

For `CSc1ccc2c(c1)c(CCN)c(C)n2Cc1ccc(Cl)c(Cl)c1`, in the experiment on SF-539 CNS, the GI50 was 1.6 µM and the TGI was found to be 3.04 µM. In the experiment on SNB-75 CNS, the GI50 was 1.32 µM and the TGI is 2.6 µM.

On to `C/C(Cl)=N\OC(=O)Nc1ccc([N+](=O)[O-])cc1`, for which the TGI in the experiment with OVCAR-4 ovarian is 28.2 µM; in the experiment on SF-539 CNS, 31.8 µM; in the experiment on SNB-75 CNS, 31.4 µM.

Turning to `O=c1oc2ncccc2n1Cc1ccc([N+](=O)[O-])cc1`, the TGI with OVCAR-4 ovarian, with SF-539 CNS and in the experiment with SNB-75 CNS was > 100 µM throughout.

In the case of `CCOC(=O)C(SCCO)C(C(=O)OCC)n1ccc(N)nc1=O` (centres undefined), the TGI with OVCAR-4 ovarian, in the experiment with SF-539 CNS and in the experiment on SNB-75 CNS was > 100 µM in each case.

As for `CSC1=N/C(=C\c2cccs2)C(=O)N1CN1CCOCC1`, the TGI with OVCAR-4 ovarian is 86.7 µM; in the experiment with SNB-75 CNS it was > 100 µM.

`C/C(CC(O)(C(F)(F)F)C(F)(F)F)=N\N`: the TGI with OVCAR-4 ovarian, in the experiment with SF-539 CNS and in the experiment on SNB-75 CNS was > 10 µM throughout.
